In PubChem BioAssay AID1259407 (Chemical Carcinogenesis Research Information System (CCRIS), 2018):
Calls of active or inactive are those of the source. How the calls were made is not given here.

Tested on: CCRIS mutagenicity, Ames/micronucleus/aberration tests
Test: CCRIS mutagenicity studies
[1] = Test System: AMES SALMONELLA TYPHIMURIUM, Strain/Indicator: TA98, Metabolic Activation: NONE, Method: STANDARD PLATE
[2] = Test System: AMES SALMONELLA TYPHIMURIUM, Strain/Indicator: TA98, Metabolic Activation: RAT, LIVER, S-9, AROCLOR 1254, Method: STANDARD PLATE
[3] = Test System: AMES SALMONELLA TYPHIMURIUM, Strain/Indicator: TA100, Metabolic Activation: NONE, Method: STANDARD PLATE
[4] = Test System: AMES SALMONELLA TYPHIMURIUM, Strain/Indicator: TA100, Metabolic Activation: RAT, LIVER, S-9, AROCLOR 1254, Method: STANDARD PLATE
[5] = Test System: AMES SALMONELLA TYPHIMURIUM, Strain/Indicator: TA1535, Metabolic Activation: NONE, Method: STANDARD PLATE
[6] = Test System: AMES SALMONELLA TYPHIMURIUM, Strain/Indicator: TA1535, Metabolic Activation: RAT, LIVER, S-9, AROCLOR 1254, Method: STANDARD PLATE
[7] = Test System: AMES SALMONELLA TYPHIMURIUM, Strain/Indicator: TA1537, Metabolic Activation: NONE, Method: STANDARD PLATE
[8] = Test System: AMES SALMONELLA TYPHIMURIUM, Strain/Indicator: TA1537, Metabolic Activation: RAT, LIVER, S-9, AROCLOR 1254, Method: STANDARD PLATE
[9] = Test System: AMES SALMONELLA TYPHIMURIUM, Strain/Indicator: TA1538, Metabolic Activation: NONE, Method: STANDARD PLATE
[10] = Test System: AMES SALMONELLA TYPHIMURIUM, Strain/Indicator: TA1538, Metabolic Activation: RAT, LIVER, S-9, AROCLOR 1254, Method: STANDARD PLATE
[11] = Test System: AMES SALMONELLA TYPHIMURIUM, Strain/Indicator: TA97, Metabolic Activation: NONE, Method: STANDARD PLATE
[12] = Test System: AMES SALMONELLA TYPHIMURIUM, Strain/Indicator: TA102, Metabolic Activation: NONE, Method: STANDARD PLATE

## OCl
End Point: IN VIVO MICRONUCLEUS, Test System: BONE MARROW POLYCHROMATIC ERYTHROCYTES, Species: MOUSE, Strain/Sex: DDY/MALE, Route: IP
  mutagenic call: inactive; negative
Test System: AMES SALMONELLA TYPHIMURIUM, Strain/Indicator: TA97, Metabolic Activation: NONE, Method: PREINCUBATION
  mutagenic call: inactive; negative
Test System: AMES SALMONELLA TYPHIMURIUM, Strain/Indicator: TA97, Metabolic Activation: RAT, LIVER, S-9, AROCLOR 1254, Method: PREINCUBATION
  mutagenic call: inactive; negative
Test System: AMES SALMONELLA TYPHIMURIUM, Strain/Indicator: TA98, Metabolic Activation: NONE, Method: FLUCTUATION TEST
  mutagenic call: inactive; negative
[1]
  mutagenic call: inactive; negative
[2]
  mutagenic call: inactive; negative
Test System: AMES SALMONELLA TYPHIMURIUM, Strain/Indicator: TA100, Metabolic Activation: NONE, Method: FLUCTUATION TEST
  mutagenic call: inactive; negative
[3]
  mutagenic call: inactive; negative
[4]
  mutagenic call: inactive; negative
Test System: AMES SALMONELLA TYPHIMURIUM, Strain/Indicator: TA102, Metabolic Activation: NONE, Method: FLUCTUATION TEST
  mutagenic call: inactive; negative
Test System: AMES SALMONELLA TYPHIMURIUM, Strain/Indicator: TA102, Metabolic Activation: NONE, Method: PREINCUBATION
  mutagenic call: inactive; negative
Test System: AMES SALMONELLA TYPHIMURIUM, Strain/Indicator: TA102, Metabolic Activation: RAT, LIVER, S-9, AROCLOR 1254, Method: PREINCUBATION
  mutagenic call: inactive; negative
[5]
  mutagenic call: inactive; negative
[6]
  mutagenic call: inactive; negative
[7]
  mutagenic call: inactive; negative
[8]
  mutagenic call: inactive; negative
[9]
  mutagenic call: inactive; negative
[10]
  mutagenic call: inactive; negative
Test System: CHINESE HAMSTER OVARY, Strain/Indicator: CHO-K1-BH4 (HGPRT), Metabolic Activation: NONE, Method: STANDARD PLATE
  mutagenic call: inactive; negative
Test System: UDS RODENT HEPATOCYTES, Strain/Indicator: THY INCORP (NON-S-PHASE), Metabolic Activation: NONE, Method: LIQUID SCINTILLATION COUNTING
  mutagenic call: inactive; negative

## Oc1ccc2[nH]c3ccccc3c2c1
Test System: CHINESE HAMSTER OVARY, Strain/Indicator: CHO-K1-BH4 (HGPRT)/6-THIOGUANINE, Metabolic Activation: RAT, LIVER, S-9, AROCLOR (4%)
  mutagenic call: active; positive

## O=C(/C=C/c1ccc(O)c(O)c1)O[C@@H]1C[C@](O)(C(=O)O)C[C@@H](O)[C@H]1O
Test System: AMES SALMONELLA TYPHIMURIUM, Strain/Indicator: TA98, Metabolic Activation: HAMSTER, LIVER, S-9, AROCLOR 1254, Method: STANDARD PLATE
  mutagenic call: inactive; negative
[1]
  mutagenic call: inactive; negative
[2]
  mutagenic call: inactive; negative
Test System: AMES SALMONELLA TYPHIMURIUM, Strain/Indicator: TA100, Metabolic Activation: HAMSTER, LIVER, S-9, AROCLOR 1254, Method: STANDARD PLATE
  mutagenic call: inactive; negative
[3]
  mutagenic call: inactive; negative
[4]
  mutagenic call: inactive; negative
Test System: AMES SALMONELLA TYPHIMURIUM, Strain/Indicator: TA1535, Metabolic Activation: HAMSTER, LIVER, S-9, AROCLOR 1254, Method: STANDARD PLATE
  mutagenic call: inactive; negative
[5]
  mutagenic call: inactive; negative
[6]
  mutagenic call: inactive; negative
Test System: AMES SALMONELLA TYPHIMURIUM, Strain/Indicator: TA1537, Metabolic Activation: HAMSTER, LIVER, S-9, AROCLOR 1254, Method: STANDARD PLATE
  mutagenic call: inactive; negative
[7]
  mutagenic call: inactive; negative
[8]
  mutagenic call: inactive; negative
Test System: AMES SALMONELLA TYPHIMURIUM, Strain/Indicator: TA1538, Metabolic Activation: HAMSTER, LIVER, S-9, AROCLOR 1254, Method: STANDARD PLATE
  mutagenic call: inactive; negative
[9]
  mutagenic call: inactive; negative
[10]
  mutagenic call: inactive; negative
Test System: MOUSE LYMPHOMA, Strain/Indicator: L5178Y (TK+/TK-), Metabolic Activation: NONE, Method: SUSPENSION/PLATE
  mutagenic call: inactive; negative. reevaluation of results: negative
Test System: MOUSE LYMPHOMA, Strain/Indicator: L5178Y (TK+/TK-), Metabolic Activation: RAT, LIVER, S-9, AROCLOR 1254, Method: SUSPENSION/PLATE
  mutagenic call: active; positive. reevaluation of results: positive

## c1ccc2c(c1)ccc1ccc3sccc3c12
Test System: Ames Salmonella typhimurium, Strain/Indicator: TA100, Metabolic Activation: None, Method: Plate incorporation
  mutagenic call: active; positive
Test System: Ames Salmonella typhimurium, Strain/Indicator: TA104, Metabolic Activation: None, Method: Plate incorporation
  mutagenic call: inactive; negative

## CCCCOC(=O)CCCCCCCCC(=O)OCCCC
[11]
  mutagenic call: inactive; negative
Test System: AMES SALMONELLA TYPHIMURIUM, Strain/Indicator: TA97, Metabolic Activation: S-9, Method: STANDARD PLATE
  mutagenic call: inactive; negative
[1]
  mutagenic call: inactive; negative
Test System: AMES SALMONELLA TYPHIMURIUM, Strain/Indicator: TA98, Metabolic Activation: S-9, Method: STANDARD PLATE
  mutagenic call: inactive; negative
[3]
  mutagenic call: inactive; negative
Test System: AMES SALMONELLA TYPHIMURIUM, Strain/Indicator: TA100, Metabolic Activation: S-9, Method: STANDARD PLATE
  mutagenic call: inactive; negative
[12]
  mutagenic call: inactive; negative
Test System: AMES SALMONELLA TYPHIMURIUM, Strain/Indicator: TA102, Metabolic Activation: S-9, Method: STANDARD PLATE
  mutagenic call: inactive; negative
Test System: E.COLI, Strain/Indicator: WP2 (PKM101), Metabolic Activation: NONE, Method: STANDARD PLATE
  mutagenic call: inactive; negative
Test System: E.COLI, Strain/Indicator: WP2 (PKM101), Metabolic Activation: S-9, Method: STANDARD PLATE
  mutagenic call: inactive; negative

## COc1cccc2c1C(=O)c1c(O)c3c(c(O)c1C2=O)C[C@@](O)(C(=O)CO)C[C@@H]3O[C@H]1C[C@H](N)[C@@H](O)[C@H](C)O1
[11]
  mutagenic call: inactive; negative
[1]
  mutagenic call: active; positive
[3]
  mutagenic call: inactive; negative
[12]
  mutagenic call: active; positive
Test System: AMES SALMONELLA TYPHIMURIUM, Strain/Indicator: TA104, Metabolic Activation: NONE, Method: STANDARD PLATE
  mutagenic call: inactive; negative
Test System: AMES SALMONELLA TYPHIMURIUM, Strain/Indicator: TA2637, Metabolic Activation: NONE, Method: STANDARD PLATE
  mutagenic call: active; positive

## O=C(O)/C=C(\CCl)C(Cl)Cl
Test System: AMES SALMONELLA TYPHIMURIUM, Strain/Indicator: TA98, Metabolic Activation: NONE, Method: PREINCUBATION
  mutagenic call: inactive; negative
Test System: AMES SALMONELLA TYPHIMURIUM, Strain/Indicator: TA100, Metabolic Activation: NONE, Method: PREINCUBATION
  mutagenic call: active; positive
Test System: AMES SALMONELLA TYPHIMURIUM, Strain/Indicator: TA104, Metabolic Activation: NONE, Method: PREINCUBATION
  mutagenic call: inactive; negative
